Reference: patent publication US20140357512A1, “HISTONE DEACETYLASE (HDAC) BIOMARKERS IN MULTIPLE MYELOMA” (priority 2013, published 2014)

Tested on: human myeloma cell line MM.1S
Assay: SILAC acetylated-lysine peptide profiling, HDAC inhibitor vs DMSO (light/heavy ratio)
Type: cell-based
From the text: An embodiment of the invention comprises utilizing the SILAC method in order to quantitate changes in protein expression between two or more populations of cells. The SILAC method is a technique based on mass spectrometry that detects differences in protein abundance among samples using non-radioactive isotopic labeling. The SILAC method is known in the art, and described in detail in Ong et al., “Stable Isotope Labeling by Amino Acids in Cell Culture, SILAC, as a Simple and Accurate Approach to Expression Proteomics”, Molecular & Cellular Proteomics, vol. 1, pp. 376-386 (2002), which is incorporated herein by reference in its entirety.
Briefly, the SILAC method involves growing two populations of cells in cell culture. The first population of cells is grown in growth media containing normal amino acids (“normal media”). The second population of cells is grown in media lacking a standard essential amino acid (such as lysine), but is then supplemented with a non-radioactive, isotopically labeled form of that essential amino acid (such as lysine labeled with ^13C atoms, rather than normal ^12C atoms), which is called “heavy media”. When the two populations of cells are each growing in the medium, they incorporate the amino acids into all of their proteins. The growth of cells maintained in the heavy media is no different from that in normal media. All peptides containing the heavy amino acids are heavier than their normal counterparts. The cells from each of the two populations of cells are lysed. The lysates from each of the two cell populations are then combined. The combined cell lysates are then analyzed by mass spectrometry. Pairs of chemically identical peptides of different stable isotope composition can be differentiated in a mass spectrometer due to their difference in mass. The ratio of peak intensities in the mass spectrum for such peptide pairs reflects the abundance ratio for the two proteins.
This example describes SILAC studies that were performed to compare the effects of three different HDAC inhibitors (Compound A, Compound B, and tubastatin A) to a control on a human multiple myeloma cell line. The HDAC inhibitors were also compared amongst themselves to determine differences in their effects.
A human myeloma cell line MM.1S was grown using either ^12C (light) or ^13C (heavy) lysine containing culture medium. The “heavy” cells were treated with DMSO as the control, and the “light” cells were treated with a single HDAC inhibitor at 37° C. for 6 hours. The heavy and light cells were lysed, and the lysates were mixed in 1:1 ratio and digested with the protease trypsin. The acetylated lysine containing peptides (due to the action of the HDAC inhibitor) in the digested peptide pool were captured by a non-specific anti-acetylated lysine antibody cocktail (the antibodies identify both light and heavy acetylated peptides), and subjected to mass spectrometry analysis in order to identify thousands of individual peptides.
Thousands of peptides were identified in pairs (^12C and ^13C) due to their known mass differences. The amino acid sequence and quantitative ratio (Light/Heavy) of a given peptide in two differentially treated cell lysates were then determined and annotated with their possible protein (gene) sources.
As stated above, three HDAC inhibitors (Compound A, Compound B, and Tubastatin A) were used. Thus, the SILAC method was performed three times, with a different HDAC inhibitor compared to a control each time. Accordingly, there are three pairs of quantitative data in the table below, i.e., Compound A:DMSO, Compound B:DMSO, and Tubastatin A:DMSO. A cut-off of 1.30 fold of change (increase or decrease) was then used to determine “changed” or “+” in the table, and any peptides with a fold of change less than 1.3 fold were determined to be “unchanged” or “0” in the table. Those peptides that were not identified were marked as “NA” in the table. […]

O=C(NO)c1cnc(NC2(c3cccc(F)c3)CCCCC2)nc1 [Compound B, 2-((1-(3-fluorophenyl)cyclohexyl)amino)-N-hydroxypyrimidine-5-carboxamide]
0.74 log 2: L/H ratio of acetylated peptide (TVSK(ac)[…] (SEQ ID NO: 428), 6-phosphogluconate dehydrogenase decarboxylating [38], PGD)
−0.38 log 2: L/H ratio of acetylated peptide (TTHLIAK(ac)EEMIHNLQ (SEQ ID NO: 435), 26S proteasome non-ATPase regulatory subunit 12 [448], PSMD12)
−0.63: L/H ratio of acetylated peptide (ac)[…](ac)AAK (SEQ ID NO: 6) (VDAC3 [12], log 2 scale, drug vs DMSO)
−0.86 log 2: L/H ratio of acetylated peptide (TPSVGK(ac)[…] (SEQ ID NO: 418), Isoform Long of Antigen KI-67 [2264], MKI67)
−0.53 log 2: L/H ratio of acetylated peptide (SQSCETK(ac)LLDEK (SEQ ID NO: 410), Isoform 3 of Pro-interleukin-16 [277], IL16)
0.00: light to heavy ratio (L/H ratio) of acetylated peptide, log 2 scale (SFEEK(ac)VENLK (SEQ ID NO: 233), Isoform 1 of Tumor protein D52 [180], TPD52) | L/H ratio of acetylated peptide LFAK(ac)[…] (SEQ ID NO: 98) (SFPQ [319], log 2 scale, drug vs DMSO) | L/H ratio of acetylated peptide […](ac)MILIGR (SEQ ID NO: 100) (SFXN1 [86], log 2 scale, drug vs DMSO) | L/H ratio of acetylated peptide […](ac)DK (SEQ ID NO: 103) (SLC25A5 [92], log 2 scale, drug vs DMSO) | L/H ratio of acetylated peptide AFFK(ac)GAWSNVLR (SEQ ID NO: 102) (SLC25A5 [272], log 2 scale, drug vs DMSO) | L/H ratio of acetylated peptide […](ac)ANVAK (SEQ ID NO: 101) (SLC25A10 [173], log 2 scale, drug vs DMSO) | L/H ratio of acetylated peptide TWEK(ac)LLLAAR (SEQ ID NO: 104) (SNORA6, RPSAP15, SNORA62, RPSA [57], log 2 scale, drug vs DMSO) | L/H ratio of acetylated peptide […](ac)YGAIR (SEQ ID NO: 107) (SRSF1 [38], log 2 scale, drug vs DMSO) | L/H ratio of acetylated peptide (ac)AEPSAPESK(ac)HK (SEQ ID NO: 108) (STT3B [10], log 2 scale, drug vs DMSO) | light to heavy ratio (L/H ratio) of acetylated peptide, log 2 scale (TAMK(ac)YNLGLDLR (SEQ ID NO: 158), Glutamate dehydrogenase 1 mitochondrial [527], GLUD1) | light to heavy ratio (L/H ratio) of acetylated peptide, log 2 scale (TLQYK(ac)[…] (SEQ ID NO: 252), 40S ribosomal protein S16 [50], RPS16) | light to heavy ratio (L/H ratio) of acetylated peptide, log 2 scale (TPVIVTLK(ac)ENER (SEQ ID NO: 176), Hypoxia up-regulated protein 1 [75], HYOU1) | L/H ratio of acetylated peptide […](ac)YVPR (SEQ ID NO: 109) (TUBB2C [58], log 2 scale, drug vs DMSO) | L/H ratio of acetylated peptide ILAEGGGAK(ac)FK (SEQ ID NO: 110) (TUFM [91], log 2 scale, drug vs DMSO) | L/H ratio of acetylated peptide QIESK(ac)[…] (SEQ ID NO: 111) (TXN [8], log 2 scale, drug vs DMSO) | L/H ratio of acetylated peptide VYVAK(ac)[…] (SEQ ID NO: 113) (TXNDC5, MUTED, MUTED-TXNDC5 [118], log 2 scale, drug vs DMSO) | L/H ratio of acetylated peptide […](ac)YQGPR (SEQ ID NO: 112) (TXNDC5, MUTED, MUTED-TXNDC5 [150], log 2 scale, drug vs DMSO) | light to heavy ratio (L/H ratio) of acetylated peptide, log 2 scale (TYGEIFEK(ac)FHPIR (SEQ ID NO: 188), NADH dehydrogenase [ubiquinone] 1 subunit C2 [114], NDUFC2) | light to heavy ratio (L/H ratio), log 2 scale, acetylated peptide […](ac)YGK (SEQ ID NO: 817) (Transitional endoplasmic reticulum ATPase [109], gene VCP, drug:DMSO) | light to heavy ratio (L/H ratio), log 2 scale, acetylated peptide FGAPQK(ac)DVK (SEQ ID NO: 788) (Trifunctional enzyme subunit alpha mitochondrial [359], gene HADHA, drug:DMSO) | light to heavy ratio (L/H ratio), log 2 scale, acetylated peptide ILQEGVDPK(ac)K (SEQ ID NO: 789) (Trifunctional enzyme subunit alpha mitochondrial [569], gene HADHA, drug:DMSO) | L/H ratio of acetylated peptide VVVTK(ac)YCDPDSYHR (SEQ ID NO: 114) (U2AF2 [462], log 2 scale, drug vs DMSO) | L/H ratio of acetylated peptide FGIAAK(ac)[…] (SEQ ID NO: 115) (VDAC1 [224], log 2 scale, drug vs DMSO) | L/H ratio of acetylated peptide YK(ac)[…] (SEQ ID NO: 116) (VDAC2 [63], log 2 scale, drug vs DMSO) | L/H ratio of acetylated peptide YK(ac)[…] (SEQ ID NO: 117) (VDAC3 [63], log 2 scale, drug vs DMSO)
0.00 log 2: L/H ratio of acetylated peptide (ac)AEK(ac)FDCHYCR (SEQ ID NO: 725, four and a half LIM domains protein 1 isoform 5 [20], FHL1) | L/H ratio of acetylated peptide […](ac)VIPK (SEQ ID NO: 726, Endoplasmic reticulum resident protein 29 [48], ERP29) | L/H ratio of acetylated peptide TITMK(ac)QLLR (SEQ ID NO: 728, Branched-chain-amino-acid aminotransferase [281], BCAT2) | L/H ratio of acetylated peptide SK(ac)FVLVK (SEQ ID NO: 729, Endoplasmic reticulum resident protein 29 [54], ERP29) | L/H ratio of acetylated peptide TVGQLYK(ac)EQLAK (SEQ ID NO: 731, Isoform 1 of Myosin-9 [651], MYH9) | L/H ratio of acetylated peptide AAETCQEPK(ac)EFR (SEQ ID NO: 732, NADH dehydrogenase [ubiquinone] 1 alpha subcomplex assembly factor 4 [91], NDUFAF4) | L/H ratio of acetylated peptide ILMEHIHK(ac)LK (SEQ ID NO: 735, 60S ribosomal protein L19 [144], RPL19) | L/H ratio of acetylated peptide K(ac)FDQLLAEEK (SEQ ID NO: 737, Isoform 1 of Myosin-9 [1445], MYH9) | L/H ratio of acetylated peptide FVEFDMK(ac)PVCK (SEQ ID NO: 738, Isoform 2 of LIM and senescent cell antigen-like-containing domain protein 2 [326], LIMS2) | L/H ratio of acetylated peptide KAEAQIAAK(ac)NLDK (SEQ ID NO: 740, Aspartate aminotransferase mitochondrial [90], GOT2) | L/H ratio of acetylated peptide ALCTGEK(ac)GFGYK (SEQ ID NO: 744, Peptidyl-prolyl cis-trans isomerase F mitochondrial [86], PPIF) | L/H ratio of acetylated peptide IYK(ac)SDGIK (SEQ ID NO: 745, ADP/ATP translocase 2 [166], SLC25A5) | L/H ratio of acetylated peptide VPK(ac)TAENFR (SEQ ID NO: 748, Peptidyl-prolyl cis-trans isomerase D [43], PPID) | L/H ratio of acetylated peptide VNCLDK(ac)FWHK (SEQ ID NO: 749, Isoform 1 of LIM and SH3 domain protein 1 [23], LASP1) | L/H ratio of acetylated peptide KGEDFVK(ac)TLK (SEQ ID NO: 750, Malate dehydrogenase mitochondrial [335], MDH2) | L/H ratio of acetylated peptide EAEFTK(ac)SIAK (SEQ ID NO: 751, Signal peptidase complex subunit 2 [191], LOC653566, SPCS2) | L/H ratio of acetylated peptide FEDK(ac)TVAYTEQK (SEQ ID NO: 754, Protein disulfide-isomerase A3 [218], PDIA3) | L/H ratio of acetylated peptide ILEFFGLK(ac)K (SEQ ID NO: 756, Protein disulfide-isomerase [308], P4HB) | light to heavy ratio (L/H ratio) of acetylated peptide LQDFK(ac)SFLLK (SEQ ID NO: 582) (Serine hydroxymethyltransferase mitochondrial [469], gene SHMT2, inhibitor:DMSO) | light to heavy ratio (L/H ratio) of acetylated peptide SFLLK(ac)DSETSQR (SEQ ID NO: 567) (Serine hydroxymethyltransferase mitochondrial [474], gene SHMT2, inhibitor:DMSO) | light to heavy ratio (L/H ratio) of acetylated peptide SGLLDK(ac)WK (SEQ ID NO: 602) (Signal peptidase complex subunit 2 [38], gene LOC653566, SPCS2, inhibitor:DMSO) | light to heavy ratio (L/H ratio) of acetylated peptide YDDPEVQK(ac)DIK (SEQ ID NO: 578) (Stress-70 protein mitochondrial [135], gene HSPA9, inhibitor:DMSO) | light to heavy ratio (L/H ratio) of acetylated peptide […](ac)SLAEHR (SEQ ID NO: 534) (Stress-induced-phosphoprotein 1 [325], gene STIP1, inhibitor:DMSO) | light to heavy ratio (L/H ratio) of acetylated peptide NICSK(ac)YSVR (SEQ ID NO: 256) (Thioredoxin domain-containing protein 5 [390], TXNDC5, MUTED, MUTED-TXNDC5, drug:DMSO) | light to heavy ratio (L/H ratio) of acetylated peptide SEIINSK(ac)NFDR (SEQ ID NO: 525) (Transmembrane protein 43 [159], gene TMEM43, inhibitor:DMSO) | light to heavy ratio (L/H ratio) of acetylated peptide VK(ac)[…] (SEQ ID NO: 562) (Tricarboxylate transport protein mitochondrial [149], gene SLC25A1, inhibitor:DMSO) | light to heavy ratio (L/H ratio) of acetylated peptide VPGK(ac)DTVTK (SEQ ID NO: 308) (Trifunctional enzyme subunit beta mitochondrial [272], HADHB, drug:DMSO)
−0.47: L/H ratio of acetylated peptide […](ac)TAVAPIER (SEQ ID NO: 11) (SLC25A5 [23], log 2 scale, drug vs DMSO)
−0.74 log 2: L/H ratio of acetylated peptide (SFYYK(ac)LR (SEQ ID NO: 395), Fatty acid synthase [2426], FASN)
−0.45 log 2: L/H ratio of acetylated peptide (SQNTK(ac)[…] (SEQ ID NO: 458), Nucleoprotein TPR [713], TPR) | light to heavy ratio (L/H ratio) of acetylated peptide SNYK(ac)MMFVK (SEQ ID NO: 368) (Small acidic protein [174], C11orf58, drug:DMSO)
0.40 log 2: L/H ratio of acetylated peptide (TTTCSK(ac)LAYYYQR (SEQ ID NO: 451), Signal recognition particle 54 kDa protein [120], SRP54)
−0.56 log 2: L/H ratio of acetylated peptide (TFYQMYDK(ac)GLVYR (SEQ ID NO: 407), Isoleucyl-tRNA synthetase mitochondrial [233], IARS2)
−0.57 log 2: L/H ratio of acetylated peptide (VAHLALK(ac)HR (SEQ ID NO: 436), Isoform Rpn10A of 26S proteasome non-ATPase regulatory subunit 4 [9]8, PSMD4)
